Experimental findings from ChEMBL document CHEMBL1131351, “Nonsteroidal progesterone receptor antagonists based on a conformationally-restricted subseries of 6-aryl-1,2-dihydro-2,2,4-trimethylquinolines” (Bioorg Med Chem Lett, 1998) are described below.

The target in experiment [1] is T1, Progesterone receptor (Homo sapiens, UniProt P06401).
T1 sequence (P06401 whole entry): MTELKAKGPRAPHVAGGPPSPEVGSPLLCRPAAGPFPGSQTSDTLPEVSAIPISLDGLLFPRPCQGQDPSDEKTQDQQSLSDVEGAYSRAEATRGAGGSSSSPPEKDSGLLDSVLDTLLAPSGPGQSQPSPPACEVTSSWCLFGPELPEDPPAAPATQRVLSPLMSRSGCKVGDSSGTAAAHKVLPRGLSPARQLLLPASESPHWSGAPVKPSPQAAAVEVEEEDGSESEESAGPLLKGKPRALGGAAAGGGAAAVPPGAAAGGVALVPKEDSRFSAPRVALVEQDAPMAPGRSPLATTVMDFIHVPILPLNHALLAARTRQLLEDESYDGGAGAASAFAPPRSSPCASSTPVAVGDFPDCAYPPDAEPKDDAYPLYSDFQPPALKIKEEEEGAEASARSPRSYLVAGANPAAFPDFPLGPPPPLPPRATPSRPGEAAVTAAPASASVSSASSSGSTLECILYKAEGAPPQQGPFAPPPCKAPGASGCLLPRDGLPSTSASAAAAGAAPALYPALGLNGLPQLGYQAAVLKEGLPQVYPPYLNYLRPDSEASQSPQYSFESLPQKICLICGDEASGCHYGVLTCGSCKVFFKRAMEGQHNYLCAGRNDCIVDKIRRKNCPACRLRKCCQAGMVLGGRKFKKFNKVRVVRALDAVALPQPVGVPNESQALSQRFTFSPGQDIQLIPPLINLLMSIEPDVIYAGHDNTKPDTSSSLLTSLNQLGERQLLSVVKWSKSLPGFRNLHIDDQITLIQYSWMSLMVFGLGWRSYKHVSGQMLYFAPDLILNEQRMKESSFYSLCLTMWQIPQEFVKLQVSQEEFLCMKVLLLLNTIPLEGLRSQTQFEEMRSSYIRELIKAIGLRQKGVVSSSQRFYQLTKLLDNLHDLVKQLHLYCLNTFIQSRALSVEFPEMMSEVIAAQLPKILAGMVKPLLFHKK
In words: Antagonist activity against human progesterone receptor B (hPR-B) in co-transfected CV-1 cells. Format: functional, cell-based.

In experiment [2] the target is T1, Progesterone receptor. In words: Binding affinity against human progesterone receptor-A (hPR-A).
Experiment [3] deals with T1, Progesterone receptor. The experiment can be described thus: Agonistic activity against human progesterone receptor B (hPR-B) in co-transfected CV-1 cells. Format: functional, cell-based.

`CC1=CC(C)(C)Nc2cc3c(cc21)-c1ccc(Br)cc1C3Cc1ccccc1` (configuration not stated): inhibition on Progesterone receptor [1] was half-maximal at 10000 nM (IC50). This molecule also gave a Ki on Progesterone receptor [2] greater than 10000 nM.

On to `CC1=CC(C)(C)Nc2ccc3c(c21)Cc1cc(Br)ccc1-3`, for which the IC50 against Progesterone receptor [1] amounted to 2330 nM. In addition, at Progesterone receptor [2], the Ki was found to be 200 nM. `CC1=CC(C)(C)Nc2ccc3c(c21)Cc1cc([N+](=O)[O-])c(F)cc1-3` displayed an IC50 against Progesterone receptor [1] of 3330 nM. The Ki on Progesterone receptor [2] was 97 nM. The molecule `CC1=CC(C)(C)Nc2cc3c(c(F)c21)-c1ccc(F)cc1C3` yielded an EC50 at Progesterone receptor [3] of 650 nM. In addition, the Ki at Progesterone receptor [2] was found to be 1.5 nM. `CC1=CC(C)(C)Nc2ccc3c(c21)Cc1ccccc1-3` gave a half-inhibitory concentration (IC50) at Progesterone receptor [1] of 549 nM. The molecule further returned a Ki on Progesterone receptor [2] of 13 nM. `CC(=O)c1ccc2c(c1)Cc1cc3c(cc1-2)C(C)=CC(C)(C)N3` had an IC50 on Progesterone receptor [1] of 164 nM. In addition, the affinity at Progesterone receptor [2], expressed as Ki, was 176 nM.

As for `CC1=CC(C)(C)Nc2cc3c(cc21)-c1ccc(F)cc1C3O` (configuration not stated), the IC50 at Progesterone receptor [1] was 122 nM. This molecule also had an inhibition constant (Ki) at Progesterone receptor [2] of 101 nM.

Regarding `CCn1c2ccccc2c2ccc3c(c21)C(C)=CC(C)(C)N3`, at Progesterone receptor [1], the IC50 amounted to 284 nM. This molecule also yielded a Ki at Progesterone receptor [2] of 169 nM. Take `CC1=CC(C)(C)Nc2cc3c(cc21)-c1ccccc1C3`: it took 220 nM to reach half-maximal inhibition against Progesterone receptor [1] (IC50). The molecule also displayed a Ki at Progesterone receptor [2] of 14 nM. For `CC1=CC(C)(C)Nc2cc(F)c3c(c21)Cc1cc(F)ccc1-3`, in that order: 5680 nM and 20.9 nM.

Turning to `CC1=CC(C)(C)Nc2cc3c(c(F)c21)-c1ccc(F)cc1C3(C)O` (configuration not stated), on Progesterone receptor [1], 10000 nM corresponded to half-maximal inhibition (IC50). The same molecule yielded a Ki on Progesterone receptor [2] greater than 10000 nM. Turning to `CC1=CC(C)(C)Nc2cc3c(cc21)-c1c(F)cc(F)cc1C3O` (configuration not stated), the IC50 on Progesterone receptor [1] was 80 nM. On Progesterone receptor [2], the affinity corresponds to a Ki of 25.5 nM.

The molecule `CC1=CC(C)(C)Nc2ccc3c(c21)Cc1cc([N+](=O)[O-])ccc1-3` came in with an IC50 on Progesterone receptor [1] of 1670 nM. The molecule further had a Ki at Progesterone receptor [2] of 57 nM. `CC1=CC(C)(C)Nc2ccc3c(oc4ccccc43)c21` registered an IC50 against Progesterone receptor [1] of 1140 nM. On Progesterone receptor [2], this molecule returned a Ki of 77 nM.

At Progesterone receptor [1], `CC1=CC(C)(C)Nc2cc3c(cc21)-c1ccc(Br)cc1C3` had an IC50 of 434 nM. At Progesterone receptor [2], this molecule returned a Ki of 24 nM. As to `CC1=CC(C)(C)Nc2cc3c(cc21)-c1c(F)ccc(F)c1C3`, the half-maximal inhibitory concentration (IC50) on Progesterone receptor [1] was found to be 146 nM. The Ki at Progesterone receptor [2] was found to be 3.1 nM.

For the molecule `CC1=CC(C)(C)Nc2cc3c(cc21)-c1ccc(Cl)cc1C3`, at Progesterone receptor [1], the IC50 worked out at 248 nM. The same molecule yielded a Ki at Progesterone receptor [2] of 29 nM.

The molecule `CC1=CC(C)(C)Nc2cc3c(c(F)c21)-c1ccc(F)cc1C3OC(=O)C(F)(F)F` (configuration not stated) displayed an IC50 against Progesterone receptor [1] of 46 nM. On Progesterone receptor [2], the Ki stood at 62.5 nM. For `CC1=CC(C)(C)Nc2cc3c(cc21)-c1ccccc1C3=O` the same measures were 353 nM and 3550 nM. Turning to `CC1=CC(C)(C)Nc2cc3c(c(F)c21)-c1ccc(F)cc1C3=O`, the IC50 on Progesterone receptor [1] stood at 365 nM. This molecule gave a Ki on Progesterone receptor [2] greater than 10000 nM.

Consider `CC1=CC(C)(C)Nc2cc3c(cc21)-c1ccc([N+](=O)[O-])cc1C3`, for which half-maximal inhibition against Progesterone receptor [1] (IC50) required 90 nM. For the same molecule, the Ki on Progesterone receptor [2] stood at 3.6 nM. The molecule `CC1=CC(C)(C)Nc2cc3oc4ccccc4c3cc21` displayed an IC50 at Progesterone receptor [1] of 1850 nM. For the same molecule, on Progesterone receptor [2], affinity was put at a Ki of 184 nM. At Progesterone receptor [1], `CC1=CC(C)(C)Nc2cc3c(cc21)-c1cc(F)c([N+](=O)[O-])cc1C3` showed an IC50 of 100 nM. Moreover, the affinity on Progesterone receptor [2], expressed as Ki, was 1.9 nM.

In turn, `CC1=CC(C)(C)Nc2cc3c(cc21)-c1ccccc1C3O` (configuration not stated) gave an IC50 against Progesterone receptor [1] of 609 nM. Moreover, on Progesterone receptor [2], the Ki was found to be 483 nM.

For the molecule `CC1CC(C)(C)Nc2cc3c(cc21)-c1ccccc1C3` (configuration not stated), the IC50 at Progesterone receptor [1] amounted to 424 nM. At Progesterone receptor [2], the Ki was determined as 87 nM. For `CC1=CC(C)(C)Nc2cc3c(cc21)-c1cccc(F)c1C3` the same measures were 1770 nM and 2.3 nM. For `CC1=CC(C)(C)Nc2ccc3c([nH]c4ccccc43)c21`, in that order: 662 nM and greater than 1000 nM. For `CC1=CC(C)(C)Nc2cc3c(cc21)-c1cccc(CO)c1C3`, in that order: 10000 nM and 12.4 nM. Regarding `CC1=CC(C)(C)Nc2cc(F)c3c(c21)C(O)c1cc(F)ccc1-3` (configuration not stated), the IC50 against Progesterone receptor [1] was 10000 nM. The same molecule gave a Ki at Progesterone receptor [2] of 2580 nM.

As for `CC1=CC(C)(C)Nc2cc3c(cc21)-c1c(F)cccc1C3=O`, at Progesterone receptor [1], half-maximal inhibition (IC50) required 158 nM. Moreover, the affinity on Progesterone receptor [2], expressed as Ki, was 29.1 nM. Take `CC1=CC(C)(C)Nc2cc3c(cc21)-c1ccc(F)cc1C3`: on Progesterone receptor [2], the affinity, expressed as Ki, was 3.5 nM. In turn, `CC1=CC(C)(C)Nc2cc3c(cc21)-c1c(F)cccc1C3O` (configuration not stated) yielded an IC50 against Progesterone receptor [1] of 99 nM. The Ki at Progesterone receptor [2] was determined as 449 nM. For `CC1=CC(C)(C)Nc2cc3c(cc21)-c1ccc(Br)cc1C3O` (configuration not stated), in that order: 3440 nM and 1860 nM.

For the molecule `CCCCn1c2ccccc2c2ccc3c(c21)C(C)=CC(C)(C)N3`, at Progesterone receptor [1], the IC50 stood at 416 nM. The Ki at Progesterone receptor [2] worked out at 77 nM.

In the case of `CC1=CC(C)(C)Nc2cc3c(cc21)-c1cc(F)cc(F)c1C3O` (configuration not stated), the IC50 on Progesterone receptor [1] was determined as 74 nM. Moreover, on Progesterone receptor [2], the affinity corresponds to a Ki of 202 nM.

In the case of `CC1=CC(C)(C)Nc2cc3[nH]c4ccccc4c3cc21`, half-maximal inhibition at Progesterone receptor [1] (IC50) was put at 59 nM. In addition, on Progesterone receptor [2], the Ki was 113 nM. As for `CC1=CC(C)(C)Nc2cc3c(cc21)-c1ccc(Br)cc1C3C` (configuration not stated), the midpoint of inhibition at Progesterone receptor [1], the IC50, lay at 10000 nM. The Ki at Progesterone receptor [2] was greater than 10000 nM.

Regarding `CC1=CC(C)(C)Nc2cc3c(c(Cl)c21)-c1ccccc1C3O` (configuration not stated), the midpoint of inhibition against Progesterone receptor [1], the IC50, lay at 163 nM. Besides, on Progesterone receptor [2], the Ki was determined as 53.1 nM. As to `CC1=CC(C)(C)Nc2ccc3c(c21)Cc1c(F)cccc1-3`, 496 nM corresponded to half-maximal inhibition against Progesterone receptor [1] (IC50). On Progesterone receptor [2], this molecule gave a Ki of 15.5 nM.

As a reminder, the IC50 is the point on the concentration scale where inhibition reaches its midpoint. For orientation: Ki means a measure of affinity in units of concentration, obtained from inhibition or displacement. A high value points to weaker binding. One may read the EC50 as the midpoint of the concentration-response curve. High values mean weaker potency, low ones greater potency.
